Measured values reported in patent US6458781B1, “Substituted diarylalkyl amides as calcium channel antagonists” (priority 1998, dated 2002).
pIC50: −log10 of the molar value.

How the values were obtained:
[1] = biological target: T1, N-type calcium channels in IMR-32 cells (Homo sapiens, UniProt Q00975); assay: N-type Ca2+ channel blocking potency in IMR-32 cells using Indo-1; assay type: cell-based; conditions: for inhibition at 10 µM / inhibition at 1 µM: IMR-32, IMR-32 cells; for inhibition at 10 µM: read-out: IMR32 % blockage at 10 μM; for inhibition at 1 µM: read-out: IMR32 % blockage at 1 μM; for pIC50: IMR-32 cells, estimated from two data points, read-out: IMR32 IC50 (estimated IC50 values based on two data points)
T1 construct: host or cells: IMR-32 cells differentiated with dibutyryl cAMP and bromodeoxyuridine
Procedure: Measurement of N-type Ca^2+ Channel Blocking Potencies of Compounds in IMR-32 Cells Using the Fluorescent Ca^2+ Indicator Indo-1
IMR-32 cells are a human tumoral cell line of neural origin. […] Calcium flux into these cells may be induced by stimulation with elevated potassium concentrations. The L-channel component of calcium flux may be blocked by adding 5 μM nitrendipine. The remaining component of calcium entry into the IMR-32 cells is due to calcium flux through N-type calcium channels. Intracellular calcium concentrations are measured using the fluorescent calcium indicator Indo-1. The effect of drug concentration on calcium uptake is studied.
The IMR-32 cell line was obtained from the American Type Culture Collection (Rockville, Md.). Cells were grown in Eagle's Minimum Essential Medium with Earle's salts supplemented with 10% fetal bovine serum, 2 mM L-Gln and antibiotic/antimycotic mixture (Gibco). At approximately 80% confluency, differentiation was induced by the addition of 1 mM dibutyryl cAMP and 2.5 μM bromodeoxyuridine to the medium. After 7 to 13 days of differentiation, cells were detached using 0.5 mM EDTA and loaded with 5 μM Indo-1 acetoxymethyl ester (Molecular Probes, Eugene, Oreg.) at 30° C. for 45 minutes. Loaded cells were washed twice, resuspended (˜10^7 cells/mL) in assay buffer (10 mM HEPES/Tris pH 7.4 in Hank's Balanced Salt Solution without bicarbonate or phenol red containing 0.5% bovine serum albumin) and kept on ice until use. Fluorescence measurements were carried out in a Photon Technology International (PTI, South Brunswick, N.J.) Model RF-F3004 spectrofluorometer with dual emission monochromators using excitation at 350 nm and emission at 400 and 490 nm. The instrument was equipped with a thermostated cuvette holder with stirring capabilities as well as with a computer-controlled pump which allowed for reagent addition during measurement. Instrument control and data collection was done by PTI's OSCAR software running on an IBM compatible computer. Different concentrations of the test compounds (60 μL in dimethyl sulfoxide) were added to 5.94 mL of assay buffer containing approximately 3×10^6 loaded cells, and 5 μM Nitrendipine (in 30 μL EtOH) to block L-type Ca^2+ channels. Samples were incubated for 10 minutes at 30° C. and the aliquot into three 10×10 mm disposable acrylic cuvettes. Emission signals at 400 and 490 nm were acquired from each cuvette at 30° C. for 50 seconds. At 20 seconds after the start of reading, cells were depolarized by the addition of 160 μL of stimulation solution (1 M KCl, 68 mM CaCl2) to the cuvette via the computer-controlled pump. Ratio of dual emission signals (400/490 nm), which is proportional to intracellular Ca^2+ concentration, was plotted against time, and the difference between maximal response after stimulation and basal value (before stimulation) was determined. Values obtained in this way were plotted as a function of drug concentration. IC50 values of test compounds were calculated by fitting a four-parameter logistic function to the data using the least squares method.

[2] = biological target: T2, L-type calcium channels in A10 cells (Rattus norvegicus, UniProt P22002); assay: L-type Ca2+ channel blocking potency in A10 cells (FLIPR); assay type: cell-based; conditions: read-out: FLPA10 IC50
T2 construct: which endogenously expresses L-type calcium channels; host or cells: A10 rat embryonic thoracic aorta smooth muscle cells
T2 sequence (P22002 whole entry): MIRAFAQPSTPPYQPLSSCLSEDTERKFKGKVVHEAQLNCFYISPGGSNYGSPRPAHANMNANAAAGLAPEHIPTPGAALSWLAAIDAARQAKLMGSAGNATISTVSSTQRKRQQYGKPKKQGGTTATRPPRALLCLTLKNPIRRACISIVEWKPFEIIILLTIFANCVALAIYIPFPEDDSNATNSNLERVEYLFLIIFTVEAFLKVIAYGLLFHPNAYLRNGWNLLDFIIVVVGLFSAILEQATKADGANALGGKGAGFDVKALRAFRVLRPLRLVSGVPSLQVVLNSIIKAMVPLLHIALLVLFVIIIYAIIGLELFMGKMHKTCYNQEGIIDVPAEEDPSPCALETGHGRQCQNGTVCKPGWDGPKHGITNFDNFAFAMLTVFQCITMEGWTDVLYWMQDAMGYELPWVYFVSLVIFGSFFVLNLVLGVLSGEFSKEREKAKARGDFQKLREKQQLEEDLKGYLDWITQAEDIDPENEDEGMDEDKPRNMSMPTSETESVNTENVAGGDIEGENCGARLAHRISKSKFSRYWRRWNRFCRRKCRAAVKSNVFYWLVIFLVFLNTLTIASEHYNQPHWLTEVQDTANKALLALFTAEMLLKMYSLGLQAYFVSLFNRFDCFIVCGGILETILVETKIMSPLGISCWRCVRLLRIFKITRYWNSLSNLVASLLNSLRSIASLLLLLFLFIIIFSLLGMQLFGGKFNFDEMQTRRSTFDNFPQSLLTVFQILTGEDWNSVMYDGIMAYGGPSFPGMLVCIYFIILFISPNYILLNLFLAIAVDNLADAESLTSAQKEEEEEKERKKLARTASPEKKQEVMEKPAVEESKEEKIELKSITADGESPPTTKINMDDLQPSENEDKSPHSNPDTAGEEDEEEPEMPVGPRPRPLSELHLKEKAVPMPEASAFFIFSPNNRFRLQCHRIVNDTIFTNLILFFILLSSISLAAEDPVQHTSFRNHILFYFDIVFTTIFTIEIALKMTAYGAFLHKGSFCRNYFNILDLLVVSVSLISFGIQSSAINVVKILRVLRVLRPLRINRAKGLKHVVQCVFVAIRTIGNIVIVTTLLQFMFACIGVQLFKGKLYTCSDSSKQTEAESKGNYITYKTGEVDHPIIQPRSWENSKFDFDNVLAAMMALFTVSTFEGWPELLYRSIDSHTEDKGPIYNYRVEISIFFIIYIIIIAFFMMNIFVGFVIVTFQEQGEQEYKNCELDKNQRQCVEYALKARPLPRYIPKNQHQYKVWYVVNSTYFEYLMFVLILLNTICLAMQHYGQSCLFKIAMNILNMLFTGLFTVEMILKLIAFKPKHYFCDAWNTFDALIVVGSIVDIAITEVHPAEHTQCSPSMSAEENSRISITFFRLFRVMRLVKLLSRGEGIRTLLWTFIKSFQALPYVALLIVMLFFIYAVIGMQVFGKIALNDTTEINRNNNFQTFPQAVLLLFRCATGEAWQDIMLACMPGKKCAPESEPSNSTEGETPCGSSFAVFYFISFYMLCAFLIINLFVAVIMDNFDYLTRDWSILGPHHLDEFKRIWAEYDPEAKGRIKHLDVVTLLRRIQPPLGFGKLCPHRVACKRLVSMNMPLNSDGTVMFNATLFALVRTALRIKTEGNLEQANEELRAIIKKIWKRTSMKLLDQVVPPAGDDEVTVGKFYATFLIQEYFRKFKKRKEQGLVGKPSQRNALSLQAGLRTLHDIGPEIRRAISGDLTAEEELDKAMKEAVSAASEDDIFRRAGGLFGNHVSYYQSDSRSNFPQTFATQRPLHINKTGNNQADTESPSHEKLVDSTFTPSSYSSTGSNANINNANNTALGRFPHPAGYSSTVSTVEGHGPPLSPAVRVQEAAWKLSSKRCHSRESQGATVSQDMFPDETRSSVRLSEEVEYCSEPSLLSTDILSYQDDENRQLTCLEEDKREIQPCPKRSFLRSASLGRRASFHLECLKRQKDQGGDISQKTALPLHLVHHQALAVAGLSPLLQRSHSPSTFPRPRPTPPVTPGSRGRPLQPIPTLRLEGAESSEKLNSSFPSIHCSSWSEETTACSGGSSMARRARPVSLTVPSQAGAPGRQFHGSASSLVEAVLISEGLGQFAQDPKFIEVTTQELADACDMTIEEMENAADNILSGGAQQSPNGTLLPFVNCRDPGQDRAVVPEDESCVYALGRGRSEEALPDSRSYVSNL
T2 sequence (P54290 25-944 partner limits assumed): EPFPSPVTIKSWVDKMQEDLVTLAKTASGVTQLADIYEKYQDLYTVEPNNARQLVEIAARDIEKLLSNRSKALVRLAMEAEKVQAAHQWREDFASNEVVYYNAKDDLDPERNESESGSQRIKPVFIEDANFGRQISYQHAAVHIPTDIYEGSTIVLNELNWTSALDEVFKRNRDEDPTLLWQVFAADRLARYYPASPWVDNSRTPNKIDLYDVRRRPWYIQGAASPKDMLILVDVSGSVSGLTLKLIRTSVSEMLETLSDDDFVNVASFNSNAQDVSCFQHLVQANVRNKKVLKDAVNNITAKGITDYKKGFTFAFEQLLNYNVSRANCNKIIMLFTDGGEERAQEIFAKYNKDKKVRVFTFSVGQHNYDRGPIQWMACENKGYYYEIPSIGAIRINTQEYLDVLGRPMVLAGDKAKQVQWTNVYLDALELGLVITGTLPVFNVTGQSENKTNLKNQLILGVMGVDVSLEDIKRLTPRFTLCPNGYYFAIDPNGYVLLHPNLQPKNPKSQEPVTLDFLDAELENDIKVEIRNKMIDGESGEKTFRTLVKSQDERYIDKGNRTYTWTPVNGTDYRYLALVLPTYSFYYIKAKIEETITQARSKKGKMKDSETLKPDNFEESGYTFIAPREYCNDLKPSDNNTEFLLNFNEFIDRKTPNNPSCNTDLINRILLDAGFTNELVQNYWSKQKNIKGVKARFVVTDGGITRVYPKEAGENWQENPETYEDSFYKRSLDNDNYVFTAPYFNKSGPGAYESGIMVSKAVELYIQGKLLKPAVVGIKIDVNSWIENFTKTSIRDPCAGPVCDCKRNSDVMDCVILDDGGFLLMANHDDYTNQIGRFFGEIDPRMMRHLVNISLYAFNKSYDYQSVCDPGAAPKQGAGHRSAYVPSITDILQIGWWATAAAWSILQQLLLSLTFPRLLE
T2 sequence (P54290 945-1091 partner limits assumed): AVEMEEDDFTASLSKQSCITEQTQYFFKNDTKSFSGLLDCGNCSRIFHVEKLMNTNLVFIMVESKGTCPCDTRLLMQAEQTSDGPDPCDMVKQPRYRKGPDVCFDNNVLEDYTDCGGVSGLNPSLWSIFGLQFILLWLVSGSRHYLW
T2 sequence (P54287 whole entry partner): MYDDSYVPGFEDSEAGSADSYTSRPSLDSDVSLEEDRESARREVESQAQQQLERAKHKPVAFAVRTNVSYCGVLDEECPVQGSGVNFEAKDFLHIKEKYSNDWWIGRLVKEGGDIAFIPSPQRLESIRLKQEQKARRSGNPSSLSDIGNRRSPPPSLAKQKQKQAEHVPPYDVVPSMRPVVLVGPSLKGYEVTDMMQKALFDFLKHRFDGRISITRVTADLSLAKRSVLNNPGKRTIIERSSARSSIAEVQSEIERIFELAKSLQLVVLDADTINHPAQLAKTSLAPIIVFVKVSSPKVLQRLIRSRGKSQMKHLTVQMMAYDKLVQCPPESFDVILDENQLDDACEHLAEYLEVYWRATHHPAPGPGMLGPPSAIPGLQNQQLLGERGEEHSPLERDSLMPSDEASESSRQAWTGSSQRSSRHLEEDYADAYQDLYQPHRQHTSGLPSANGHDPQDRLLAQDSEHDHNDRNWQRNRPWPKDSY
Procedure: Measurement of L-type Ca^2+ Channel Blocking Potencies of Compounds in A10 Cells
Calcium flux through voltage-sensitive calcium channels was assessed by time-resolved monitoring of the fluorescence of pre-loaded calcium-sensitive dyes using FLIPR, a fluorescent image plate reader (Molecular Devices Co.). The A10 smooth muscle cell line derived from embryonic thoracic aorta of the DBIX rat (ATCC, CRL-1476) which endogenously expresses L-type calcium channels. The growth media for A10 cells was Ham's F12/DME high glucose (Irvine Scientific, 9052), supplemented with 20% fetal bovine serum (HyClone Labs, A-1115-L), and 1% each of L-glutamine and antibiotic-antimycotic (same source as above).
Cells were grown to confluency and replated on black-sided 96-well plates (Costar, 3603) for use in FLIPR. Two days after replating, growth media was removed and cells were loaded at 37° C. with 100 μL media containing 1 μM Oregon Green 488 Bapta-1 dye (Molecular Probes, O-6807) for 1 to 3 hours. The dye-containing media was then washed away with buffer (composition in mM: 1.25 CaCl2, 1.2 MgSO4, 11 glucose, 10 HEPES, 3.0 KCl, 137.0 NaCl, pH 7.4 with Tris base) in a Denley Cellwash (Labsystems, CW018B). The residual buffer volume was adjusted to 50 μL. A 5 minute drug-pre-incubation period at 35° C. was initiated when 50 μL of drug-containing buffer was pipetted into the cell plate with the 96-well pipettor integrated in the FLIPR apparatus. Fluorescent counts were monitored at 20 second intervals for 360 seconds, beginning 60 seconds prior to the delivery of drug-containing buffer. Following drug addition, 100 μL aliquots of a high K^+, depolarizing stimulus (composition in mM: 1.25 CaCl2, 1.2 MgSO4, 11 glucose, 10 HEPES, 140.0 KCl, pH 7.4 with Tris base) were added to each well, and fluorescence was monitored at 1 second intervals for 120 seconds beginning 10 seconds prior to the stimulus addition. CCD camera exposure time was 0.4 seconds, laser excitation was at 488 nm with a power of 0.2-0.5W, and a 510 to 560 nm bandpass interference filter preceded the camera.
Data was analyzed as a summation of fluorescent counts above basal during the stimulation period (an approximation of area under the curve), after normalizing the data with a spatial uniformity correction (for variations in laser illumination and cell density) and a negative control correction (zero calcium increase defined as the fluorescence reading in the presence of saturating pharmacologic block of the respective calcium channel). Drug effects were expressed as percent inhibition of fluorescence from an average of 8 K^+-stimulated wells which were pre-treated in the drug incubation period with buffer only. In the A10 cells, the pharmacologic agent used to define zero calcium influx was nitrendipine (RBI, N-144) at a final concentration of 1.0×10^−6 M.

Row | Structure (SMILES) | inhibition at 10 µM [1] [%] | pIC50 [2] | melting point [°C] | inhibition at 1 µM [1] [%] | pIC50 [1]
1 | CC(C)C[C@@H](C(=O)N1CCN(C(c2ccc(F)cc2)c2ccc(F)cc2)CC1)N(Cc1ccc(C(C)(C)C)cc1)Cc1ccc(C(C)(C)C)cc1 [Example 59, (S)-2-[Bis-(4-tert-butyl-benzyl)-amino]-1-{-4-[bis-(4-fluoro-phenyl)-methyl]-piperazin-1-yl}-4-methyl-pentan-1-one] | 2 | < 5.52 | 78 to 86 | -5 | 
2 | CC(C)C[C@H](NC(=O)N1CCN(c2ccccc2)CC1)C(=O)N1CCN(C(c2ccc(F)cc2)c2ccc(F)cc2)CC1 [Example 44, (S)-4-Phenyl-piperazine-1-carboxylic acid (1-{4-[bis-(4-fluoro-phenyl)-methyl]-piperazine-1-carbonyl}-3-methyl-butyl)-amide] |  | 6.52 | 83 to 91 |  | 6.39
3 | CC(C)C[C@@H](C(=O)N1CCN(C(c2ccc(F)cc2)c2ccc(F)cc2)CC1)N(C)C1CCOCC1 [Example 41, (S)-1-{4-[Bis-(4-fluoro-phenyl)-methyl]-piperazin-1-yl}-4-methyl-2-[methyl-(tetrahydro-pyran-4-yl)-amino]-pentan-1-one] |  | 6.11 | 56 to 65 |  | 5.64
4 | CC(C)C[C@H](NC(=O)N1CCN(C)CC1)C(=O)NCCCC(c1ccc(F)cc1)c1ccc(F)cc1 [Example 29, (S)-4-Methyl-piperazine-1-carboxylic acid {1-[4,4-bis-(4-fluoro-phenyl)-butylcarbamoyl]-3-methyl-butyl)-amide] | 82 | 5.92 | 73 to 91 | 22 | 
5 | C[C@H](NC(=O)N1CCCCCC1)C(=O)NCCCC(c1ccc(F)cc1)c1ccc(F)cc1 [Example 30, (S)-Azepane-1-carboxylic acid {1-[4,4-bis-(4-fluoro-phenyl)-butylcarbamoyl]-ethyl}-amide] | 100 | 5.89 | 29 to 49 | 39 | 
6 | CC(C)C[C@@H](C(=O)N1CCN(C(c2ccc(F)cc2)c2ccc(F)cc2)CC1)N1CCOCC1 [Example 42, (S)-1-{4-[Bis-(4-fluoro-phenyl)-methyl]-piperazin-1-yl}-4-methyl-2-morpholin-4-yl-pentan-1-one] |  | 5.70 | 55 to 63 |  | 5.47
7 | CCC(C)[C@H](NC(=O)N1CCCCCC1)C(=O)NCCCC(c1ccc(F)cc1)c1ccc(F)cc1 (stereo partly drawn) [Example 16, (S)-Azepane-1-carboxylic acid {1-[4,4-bis-(4-fluoro-phenyl)-butylcarbamoyl]-2-methyl-butyl}-amide] |  | 6.57 | 50 to 60 |  | 6.21
8 | CC(C)N[C@@H](Cc1ccccc1)C(=O)N1CCN(C(c2ccc(F)cc2)c2ccc(F)cc2)CC1 [Example 54, (S)-1-{4-[Bis-(4-fluoro-phenyl)-methyl]-piperazin-1-yl}-2-isopropylamino-3-phenyl-propan-1-one] | 99 | 5.89 | 45 to 58 | 25 | 

Second part, the compound after the results:

Row | inhibition at 10 µM [1] [%] | pIC50 [2] | melting point [°C] | inhibition at 1 µM [1] [%] | pIC50 [1] | Structure (SMILES)
9 | 104 | 6.03 | 172 to 186 |  |  | CC(C)CCN[C@@H](Cc1ccccc1)C(=O)N1CCN(C(c2ccc(F)cc2)c2ccc(F)cc2)CC1.Cl [Example 55, (S)-1-{4-[Bis-(4-fluoro-phenyl)-methyl]-piperazin-1-yl}-2-(3-methyl-butylamino)-3-phenyl-propan-1-one dihydrochloride]
10 |  | 6.36 | 64 to 77 |  | 6.33 | CCC(C)[C@H](NC(=O)N1CCCCCC1)C(=O)N1CCN(C(c2ccc(F)cc2)c2ccc(F)cc2)CC1 (stereo partly drawn) [Example 43, (S)-Azepane-1-carboxylic acid (1-{4-[bis-(4-fluoro-phenyl)-methyl]-piperazine-1-carbonyl}-2-methyl-butyl)-amide]
11 | 102 | 5.77 | 60 to 64 | 42 |  | O=C([C@H](Cc1ccccc1)NC1CCCCC1)N1CCN(C(c2ccc(F)cc2)c2ccc(F)cc2)CC1 [Example 61, (S)-1-{4-[Bis-(4-fluoro-phenyl)-methyl]-piperazin-1-yl}-2-cyclohexylamino-3-phenyl-propan-1-one]
12 |  | 6.03 | 63 to 73 |  | 5.82 | CC(C)C[C@H](NC(=O)N1CCCCCC1)C(=O)N1CCN(C2c3ccccc3-c3ccccc32)CC1 [Example 45, (S)-Azepane-1-carboxylic acid {1-[4-(9H-fluoren-9-yl)-piperazine-1-carbonyl]-3-methyl-butyl}-amide]
13 |  | 6.02 | 59 to 66 |  | 6.26 | CC(C)C[C@H](NC(=O)OC(C)(C)C)C(=O)N1CCN(C(c2ccc(F)cc2)c2ccc(F)cc2)CC1 [Example 50, (S)-(1-{4-[Bis-(4-fluoro-phenyl)-methyl]-piperazine-1-carbonyl}-3-methyl-butyl)-carbamic acid tert-butyl ester]
14 |  | 5.77 | 66 to 74 |  | 5.92 | CC(C)C[C@H](NC(=O)N1CCCCCC1)C(=O)N1CCN(C(c2ccccc2)c2ccccc2)CC1 [Example 48, (S)-Azepane-1-carboxylic acid [1-(4-benzhydryl-piperazine-1-carbonyl)-3-methyl-butyl]-amide]
15 | 89 | 5.82 | 58 to 65 | 35 |  | CC(C)C[C@@H](C(=O)NCCC(c1ccccc1)c1ccccc1)N1CCCCC1.Cl [Example 24, (S)-4-Methyl-2-piperidin-1-yl-pentanoic acid (3,3-diphenyl-propyl)-amide monohydrochloride]
